Where “and” joins values, the source holds several entries; their conditions need not be identical. Identical values can stand only once.
Columns and labels:
[1] = tested on: THP-1 Lucia ISG cells (interferon pathway); test: Potency test of purified dimers on THP-1 Lucia ISG reporter cells; format: cell-based, human; details: for EC50: three biological replicates, read-out: EC50, THP-1 Lucia interferon reporter; for Raw readings: replicates 1-3, duplicate wells
Procedure: Cells were pelleted (150g, 10 min) and resuspended in the growth medium (40% conditioned) at a density of 1 × 10^6 cells ml^−1. The cell suspension was dispensed (50 µl each well) into a lidded white 96-well plate (BrandTech 781665). Test compounds or DMSO control were diluted in the growth medium and sterilized by filtering through 0.22-µm polyethersulfone (PES) membranes (Merck SLGP033RS). […] Upon cooling down to room temperature, 50 µl of reconstituted luciferase substrate (InvivoGen QUANTI-Luc) was added to each well via the injector of the plate reader (Molecular Devices SpectraMax i3x), and the luminescence output was recorded (4 s delay, 0.1 s integration). Raw signals were divided by the averaged signal of the DMSO-treated control wells and reported in relative luminescence unit (RLU). The dose–response curve of each replicate was fitted individually using the standard 4PL model (GraphPad Prism). The EC50 value of each compound was averaged from three independent experiments and reported as mean ± s.e.m.

[2] = tested on: non-tumour zebrafish larvae; test: Maximum tolerated concentration (MTC) on non-tumour zebrafish larvae; format: in vivo, zebrafish (Danio rerio)
Procedure: Extended Data Fig. 7 Additional zebrafish experiment data. a MTC of β-GlcA-N1/E4 treatments on non-tumor zebrafish larvae. […] Toxicity was assessed daily by counting the total number of dead larvae and checking for the presence of morphologic changes such cardiac edemas or curved tails. Control groups were treated with the highest matched DMSO concentration (0.04%, v/v). b Left: representative image of phagocytosis in a xenograft treated with β-GlcA-N1/E4 and β-glucuronidase at 2dpi in Tg(mpeg1:mcherry-F). Each yellow arrow indicates a phagocytic event. Right: n° of phagocytic events at 2dpi. Data are presented as mean ± SEM. Statistical analysis follows that of Fig. 5. Source data

Hs578T xenografts = test: Hs578T zebrafish xenograft model; details: for 2dpi phagocytosis: individual larvae; for M1 (M1/M2) / M2 (M1/M2) / Caspase-3 / TAM / Tumor Size: replicate values; for apoptosis (activated Caspase 3) in xenografts: 4 dpi, MSA2 15 μM, SC2S 0.62 μM, β-GlcA-N1/E4 20 μM each
[3] = Homo sapiens, THP1-Lucia ISG, 24 h

## COc1cc2cc(C(=O)CCC(=O)O)sc2cc1OC [MSA2]
[1]; Homo sapiens, THP1-Lucia ISG, 24 h, Concentration 0.244141 μM, three replicates, read-out: Processed reporter response per replicate (reading relative to DMSO)
  fold induction at 0.244141 µM: 1.21
[1]; Homo sapiens, THP1-Lucia ISG, 24 h, Concentration 0.976563 μM, three replicates, read-out: Processed reporter response per replicate (reading relative to DMSO)
  fold induction at 0.976563 µM: 1.26
[1]; Homo sapiens, THP1-Lucia ISG, 24 h, Concentration 1.95312 μM, three replicates, read-out: Processed reporter response per replicate (reading relative to DMSO)
  fold induction at 1.95312 µM: 0.95
[1]; Homo sapiens, THP1-Lucia ISG, 24 h, Concentration 3.90625 μM, three replicates, read-out: Processed reporter response per replicate (reading relative to DMSO)
  fold induction at 3.90625 µM: 1.7
[1]; Homo sapiens, THP1-Lucia ISG, 24 h, Concentration 15.625 μM, three replicates, read-out: Processed reporter response per replicate (reading relative to DMSO)
  fold induction at 15.625 µM: 316
[1]; Homo sapiens, THP1-Lucia ISG, 24 h, Concentration 31.25 μM, three replicates, read-out: Processed reporter response per replicate (reading relative to DMSO)
  fold induction at 31.25 µM: 499
[1]; Homo sapiens, THP1-Lucia ISG, 24 h, Concentration 62.5 μM, three replicates, read-out: Processed reporter response per replicate (reading relative to DMSO)
  fold induction at 62.5 µM: 530
[1]; Homo sapiens, THP1-Lucia ISG, 24 h, Concentration 125 μM, three replicates, read-out: Processed reporter response per replicate (reading relative to DMSO)
  fold induction at 125 µM: 553
[1]; [3]
  EC50: 15 µM
[1]; MSA2 0.244141 uM
  Raw readings: 644 RLU and 918 RLU and 1550 RLU and 217 RLU and 421 RLU
[1]; MSA2 0.488281 uM
  Raw readings: 365 RLU and 407 RLU and 1564 RLU and 1732 RLU and 767 RLU and 301 RLU
[1]; MSA2 0.976563 uM
  Raw readings: 533 RLU and 812 RLU and 1033 RLU and 1215 RLU and 1749 RLU and 577 RLU
[1]; MSA2 1.95312 uM
  Raw readings: 558 RLU and 456 RLU and 1596 RLU and 1428 RLU and 16030 RLU and 391 RLU
[1]; MSA2 3.90625 uM
  Raw readings: 737 RLU and 1083 RLU and 2552 RLU and 2286 RLU and 91800 RLU and 972 RLU
[1]; MSA2 7.8125 uM
  Raw readings: 10329 RLU and 8090 RLU and 44667 RLU and 40124 RLU and 159658 RLU and 39192 RLU
[1]; MSA2 15.625 uM
  Raw readings: 182029 RLU and 155323 RLU and 290195 RLU and 281155 RLU and 218467 RLU and 180884 RLU
[1]; MSA2 31.25 uM
  Raw readings: 283415 RLU and 249220 RLU and 393493 RLU and 394488 RLU and 219551 RLU and 327473 RLU
[1]; MSA2 62.5 uM
  Raw readings: 293238 RLU and 272508 RLU and 497557 RLU and 499850 RLU and 276937 RLU and 389453 RLU
[1]; MSA2 125 uM
  Raw readings: 315598 RLU and 275220 RLU and 511799 RLU and 524474 RLU and 276606 RLU and 386234 RLU
[2]; 15 μM, day 3
  MSA2 MTC, event per larva (0/1): 0
[2]; 15 μM, Days 3, one cell per larva (0/1 code)
  MSA2 MTC, survival event code per larva: 0
[2]; 75 μM, day 1
  MSA2 MTC, event per larva (0/1): 0
[2]; 75 μM, day 3
  MSA2 MTC, event per larva (0/1): 1
[2]; 75 μM, Days 3, one cell per larva (0/1 code)
  MSA2 MTC, survival event code per larva: 0
[2]; 150 μM, Days 3, one cell per larva (0/1 code)
  MSA2 MTC, survival event code per larva: 0
Hs578T xenografts; experiment 230522
  2dpi phagocytosis: 35 and 14 and 22 and 25 and 15
  Caspase-3: 1.291 and 1.3466 and 1.247 and 1.364 and 1.32 and 1.585 and 1.384 and 1.691 and 1.403 and 2.142 and 1.383
  TAM: 1.785 and 1.828 and 1.882 and 4.773 and 1.144 and 1.242 and 2.18 and 1.55 and 1.171
  Tumor Size: 0.8654 and 0.6638 and 0.8064 and 0.8329 and 0.9735 and 0.8457 and 0.6726 and 0.8811 and 0.8231 and 0.9824 and 0.6461
Hs578T xenografts; experiment 230726
  2dpi phagocytosis: 13 and 22 and 48 and 31 and 19 and 33 and 17
  Caspase-3: 1.714 and 1.239 and 2.528 and 1.801 and 0.8175 and 0.6878 and 1.986 and 0.813 and 0.7306 and 1.755
  TAM: 1.62 and 4.474 and 2.224 and 3.257 and 1.206 and 1.259
  Tumor Size: 0.8603 and 1.051 and 0.553 and 0.606 and 0.4686 and 0.6683 and 0.7425 and 0.3533 and 0.734 and 0.8296
Hs578T xenografts; 2dpi
  M1 (M1/M2): 60 and 67.5676 and 80 and 70.8333 and 69.7674 and 76.1905 and 64.1026 and 75 and 95.082 and 71.7949 and 80.6452 and 74.4681 and 72.4638 and 63.6364
  M2 (M1/M2): 40 and 32.4324 and 20 and 29.1667 and 30.2326 and 23.8095 and 35.8974 and 25 and 4.918 and 28.2051 and 19.3548 and 25.5319 and 27.5362 and 36.3636
Hs578T xenografts
  apoptosis (activated Caspase 3) in xenografts: significantly induced apoptosis
Hs578T xenografts; 4dpi
  M1 (M1/M2): 35.7143 and 18.1818 and 40 (2×) and 21.0526 and 50 (3×) and 20 and 60 (2×) and 61.1111 and 28.125 and 25
  M2 (M1/M2): 64.2857 and 81.8182 and 60 (2×) and 78.9474 and 50 (3×) and 80 and 40 (2×) and 38.8889 and 71.875 and 75

## COc1cc2sc(C(=O)CCC(=O)O)cc2cc1SCCSc1cc2cc(C(=O)CCC(=O)O)sc2cc1OC [SC2S]
[1]; Homo sapiens, THP1-Lucia ISG, 24 h, Concentration 0.048828 μM, three replicates, read-out: Processed reporter response per replicate (reading relative to DMSO)
  fold induction at 0.048828 µM: 1.32
[1]; Homo sapiens, THP1-Lucia ISG, 24 h, Concentration 1.5625 μM, three replicates, read-out: Processed reporter response per replicate (reading relative to DMSO)
  fold induction at 1.5625 µM: 332
[1]; Homo sapiens, THP1-Lucia ISG, 24 h, Concentration 3.125 μM, three replicates, read-out: Processed reporter response per replicate (reading relative to DMSO)
  fold induction at 3.125 µM: 425
[1]; Homo sapiens, THP1-Lucia ISG, 24 h, Concentration 6.25 μM, three replicates, read-out: Processed reporter response per replicate (reading relative to DMSO)
  fold induction at 6.25 µM: 434
[1]; Homo sapiens, THP1-Lucia ISG, 24 h, Concentration 12.5 μM, three replicates, read-out: Processed reporter response per replicate (reading relative to DMSO)
  fold induction at 12.5 µM: 407
[1]; [3]
  EC50: 0.71 µM
[1]; SC2S 0.024414 uM
  Raw readings: 620 RLU and 583 RLU and 1367 RLU and 1519 RLU and 365 RLU and 638 RLU
[1]; SC2S 0.048828 uM
  Raw readings: 577 RLU and 837 RLU and 1473 RLU and 1276 RLU and 668 RLU and 425 RLU
[1]; SC2S 0.097656 uM
  Raw readings: 783 RLU and 620 RLU and 2316 RLU and 2552 RLU and 1504 RLU and 372 RLU
[1]; SC2S 0.195313 uM
  Raw readings: 2302 RLU and 2526 RLU and 10005 RLU and 13263 RLU and 15158 RLU and 614 RLU
[1]; SC2S 0.390625 uM
  Raw readings: 13233 RLU and 15402 RLU and 73880 RLU and 85525 RLU and 96208 RLU and 759 RLU
[1]; SC2S 0.78125 uM
  Raw readings: 80951 RLU and 92499 RLU and 198651 RLU and 223105 RLU and 189225 RLU and 37417 RLU
[1]; SC2S 1.5625 uM
  Raw readings: 175164 RLU and 179560 RLU and 265669 RLU and 303539 RLU and 222866 RLU and 166854 RLU
[1]; SC2S 3.125 uM
  Raw readings: 222262 RLU and 231080 RLU and 301434 RLU and 333311 RLU and 245937 RLU and 322808 RLU
[1]; SC2S 6.25 uM
  Raw readings: 230364 RLU and 232723 RLU and 323434 RLU and 349356 RLU and 281517 RLU and 362047 RLU
[1]; SC2S 12.5 uM
  Raw readings: 216991 RLU and 217865 RLU and 313187 RLU and 335098 RLU and 238105 RLU and 315297 RLU
[2]; 0.62 μM, day 3
  SC2S MTC, event per larva (0/1): 1
[2]; 3.1 μM, day 1
  SC2S MTC, event per larva (0/1): 0
[2]; 3.1 μM, day 3
  SC2S MTC, event per larva (0/1): 0
[2]; 6.2 μM, Days 3, one cell per larva (0/1 code)
  SC2S MTC, survival event code per larva: 1
Hs578T xenografts; experiment 230522
  2dpi phagocytosis: 35 and 30 and 42 and 17 and 0* and 22 and 16
  Caspase-3: 1.443 and 1.289 and 1.712 and 1.324 and 1.988 and 1.517 and 1.448 and 1.484 and 1.486 and 2.204 and 2.224
  TAM: 2.1705 and 1.352 and 2.571 and 2.448 and 1.557 and 1.167
  Tumor Size: 1.033 and 0.4622 and 0.7179 and 0.9145 and 1.19 and 0.9204 and 0.6815 and 0.7277 and 0.5409 and 0.7788
Hs578T xenografts; experiment 230726
  2dpi phagocytosis: 62 and 48 and 23 and 18 and 44 and 12 and 10 and 20
  Caspase-3: 1.045 and 1.374 and 1.091 and 2.171 and 0.9199 and 1.451 and 2.115
  TAM: 1.204 and 2.4711 and 1.9907 and 1.109 and 1.5815 and 1.362 and 3.515 and 1.246
  Tumor Size: 0.495 and 0.08364 and 0.7374 and 1.174 and 0.7912 and 0.9371 and 0.8603
Hs578T xenografts; 2dpi
  M1 (M1/M2): 56.4103 and 69.5652 and 75.5556 and 67.5 and 90 and 84.6154 and 78.7234 and 82.8947 and 70.4918 and 72.549 and 65.3846 and 65 and 82.6087 and 55.5556 and 72.2222
  M2 (M1/M2): 43.5897 and 30.4348 and 24.4444 and 32.5 and 10 and 15.3846 and 21.2766 and 17.1053 and 29.5082 and 27.451 and 34.6154 and 35 and 17.3913 and 44.4444 and 27.7778
Hs578T xenografts
  apoptosis (activated Caspase 3) in xenografts: significantly induced apoptosis
Hs578T xenografts; 4dpi
  M1 (M1/M2): 36.3636 and 58.3333 (2×) and 42.8571 and 37.5 and 12.5 and 25 and 54.5455 and 41.1765 and 31.4286 and 70.3704 and 40 and 39.1304 and 37.037 and 33.3333
  M2 (M1/M2): 63.6364 and 41.6667 (2×) and 57.1429 and 62.5 and 87.5 and 75 and 45.4545 and 58.8235 and 68.5714 and 29.6296 and 60 and 60.8696 and 62.963 and 66.6667

From publication PMC12669040, “Tumour-specific STING agonist synthesis via a two-component prodrug system” (Nature Chemistry, 2025)
